The values below come from publication PMC13026664, “Transcriptional Activation of Estrogen Receptor-Alpha and Estrogen Receptor-Beta from Elephant Shark (Callorhynchus milii)” (Genes, 2026).

One data set deals with T1, elephant shark ERb (Callorhinchus milii, UniProt A0A1V1FJE9).
T1 sequence (A0A1V1FJE9 1-580): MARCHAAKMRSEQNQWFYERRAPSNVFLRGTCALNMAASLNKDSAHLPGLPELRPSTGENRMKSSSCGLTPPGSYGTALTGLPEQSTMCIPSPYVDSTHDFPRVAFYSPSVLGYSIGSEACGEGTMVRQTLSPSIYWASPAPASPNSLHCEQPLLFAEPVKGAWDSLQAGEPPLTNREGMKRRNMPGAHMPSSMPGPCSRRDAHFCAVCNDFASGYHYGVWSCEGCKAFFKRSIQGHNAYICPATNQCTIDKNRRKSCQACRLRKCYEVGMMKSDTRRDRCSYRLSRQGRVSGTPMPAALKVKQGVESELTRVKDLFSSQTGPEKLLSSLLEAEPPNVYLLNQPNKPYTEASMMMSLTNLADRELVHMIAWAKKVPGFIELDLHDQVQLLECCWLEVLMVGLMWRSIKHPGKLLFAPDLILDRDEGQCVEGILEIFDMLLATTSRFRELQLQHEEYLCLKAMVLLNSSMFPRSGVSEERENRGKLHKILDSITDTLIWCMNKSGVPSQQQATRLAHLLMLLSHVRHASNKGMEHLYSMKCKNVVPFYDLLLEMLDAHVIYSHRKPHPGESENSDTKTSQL
Description: cell-based. The procedure:
(§1) Full-length estrogen receptors were amplified using specific forward and reverse primers designed at start and stop codons and cloned into the mammalian expression vector pcDNA3.1 (Invitrogen). In addition, ERs with a FLAG-tag added to the N-terminus were also prepared by PCR. A reporter construct, pGL4.23-4xERE, was produced by subcloning of oligonucleotides having 4xERE into the KpnI-HindIII site of pGL4.23 vector (Promega, Madison, WI, USA). All cloned DNA sequences were verified by sequencing.
(§2) Reporter gene assays using full-length ERs were performed in Human Embryonic Kidney 293 cells (HEK293 cells). HEK293 cells were seeded in 24-well plates at 5 × 10^4 cells/well in phenol-red-free Dulbecco’s modified Eagle’s medium with 10% charcoal/dextran-treated fetal bovine serum. After 24 h, the cells were transfected with 400 ng of reporter construct, 25 ng of pRL-TK (as an internal control to normalize the variation in transfection efficiency; contains the Renilla reniformis luciferase gene with the herpes simplex virus thymidine kinase promoter), and 200 ng of pcDNA3.1-estrogen receptor using polyethylenimine (PEI). After 5 h of incubation, ligands were applied to the medium at various concentrations. After an additional 43 h, the cells were collected, and the luciferase activity of the cells was measured with the Dual-Luciferase Reporter Assay System. Promoter activity was calculated as firefly (Photinus pyralis) luciferase activity/sea pansy (R. reniformis) luciferase activity. […] All experiments were performed in triplicate.
(§3) Elephant shark ERs were transfected into HEK293 cells with an ERE-driven reporter gene. […] Data are expressed as a ratio of a vehicle (DMSO) to other test chemicals. Each point represents the mean of triplicate determinations, and vertical bars represent the mean ± SEM.

Data set [1] has as its system amphioxus steroid receptor (SR). The following applies: cited from earlier work.
Another data set has as its system Atlantic sea lamprey ER. The conditions noted are these: cited from earlier work.
A further data set has as its system elephant shark ERa4. Description: Transcriptional activation of ERa4. Format: cell-based, elephant shark (Callorhynchus milii). The following applies: ERa4 has a deletion in the DNA-binding domain. As to the method:
as §1
Reporter gene assays using full-length ERs were performed in Human Embryonic Kidney 293 cells (HEK293 cells). HEK293 cells were seeded in 24-well plates at 5 × 10^4 cells/well in phenol-red-free Dulbecco’s modified Eagle’s medium with 10% charcoal/dextran-treated fetal bovine serum. […] After an additional 43 h, the cells were collected, and the luciferase activity of the cells was measured with the Dual-Luciferase Reporter Assay System. Promoter activity was calculated as firefly (Photinus pyralis) luciferase activity/sea pansy (R. reniformis) luciferase activity. The values shown are mean ± SEM from three separate experiments, and dose–response data, which were used to calculate the half-maximal response (EC50) for each steroid, were analyzed using GraphPad Prism (Version 11, GraphPad Software, Inc., San Diego, CA, USA). […]

In the next data set the test system is amphioxus ER. The following applies: cited from earlier work.
The next data set has as its target T2, elephant shark ERa2 (Callorhinchus milii, UniProt A0A1V1FR36).
T2 sequence (A0A1V1FR36 1-596): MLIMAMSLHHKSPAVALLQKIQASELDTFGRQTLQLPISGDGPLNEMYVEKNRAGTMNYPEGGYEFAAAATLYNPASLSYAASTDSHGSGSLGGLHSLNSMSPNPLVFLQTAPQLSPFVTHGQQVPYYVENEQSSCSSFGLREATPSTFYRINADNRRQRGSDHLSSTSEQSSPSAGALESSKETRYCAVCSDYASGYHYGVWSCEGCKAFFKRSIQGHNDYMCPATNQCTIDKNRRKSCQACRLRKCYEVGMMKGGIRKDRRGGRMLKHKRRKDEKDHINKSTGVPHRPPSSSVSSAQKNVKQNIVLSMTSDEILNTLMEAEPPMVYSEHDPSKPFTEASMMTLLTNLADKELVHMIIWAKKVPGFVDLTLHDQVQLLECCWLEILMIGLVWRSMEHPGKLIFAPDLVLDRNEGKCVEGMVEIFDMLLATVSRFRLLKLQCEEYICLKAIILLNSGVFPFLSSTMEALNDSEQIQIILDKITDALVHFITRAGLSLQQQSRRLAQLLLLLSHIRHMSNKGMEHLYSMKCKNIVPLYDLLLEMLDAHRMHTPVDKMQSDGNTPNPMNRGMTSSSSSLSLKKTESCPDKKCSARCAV
As to the method: as §1, §2, §3

The target of the next data set is T3, elephant shark ERa3 (Callorhinchus milii, UniProt A0A1V1FR36).
T3 sequence (A0A1V1FR36 1-596): T2 sequence (A0A1V1FR36 1-596)
As to the method: as §1, §2, §3

A further data set addresses T4, elephant shark ERa1 (Callorhinchus milii, UniProt A0A1V1FR36).
T4 sequence (A0A1V1FR36 1-596): T2 sequence (A0A1V1FR36 1-596)
Description: cell-based. The procedure: as §1, §2, §3

The mark [2] stands for this setting: HEK293, 43 h, read-out: Fold-Activation (±SEM).

Consider `C[C@]12CC[C@@H]3c4ccc(O)cc4CC[C@H]3[C@@H]1CCC2=O` [E1, Estrone], for which the EC50 – broadly, the concentration needed to bring the measured effect to its halfway point – on elephant shark ERb was 0.14 nM. The “Transcriptional activation of amphioxus SR” value in data set [1] was “transcriptional activators”. Also, the “Activation of Atlantic sea lamprey ER” value with Atlantic sea lamprey ER is on record as “activated”.

On to `C[C@]12CC[C@@H]3c4ccc(O)cc4CC[C@H]3[C@@H]1CC[C@@H]2O` [E2, 17b-estradiol], for which, in the data set with elephant shark ERa4, the “Transcriptional activation of ERa4” value was “lack of transcriptional activation”. Besides, the “Binding to amphioxus ER” value in the data set on amphioxus ER is recorded as “does not bind”. In data set [1], the “Transcriptional activation of amphioxus SR” value is on record as “transcriptional activators”. In addition, in the data set on Atlantic sea lamprey ER, the “Activation of Atlantic sea lamprey ER” value was “activated”.

As to `C[C@]12CC[C@@H]3c4ccc(O)cc4CC[C@H]3[C@@H]1C[C@@H](O)[C@@H]2O` [E3, estriol], the “Ratio (fold-activation of each estrogen divided by the value of E2)” value at elephant shark ERa2 (ERa2 in HEK293, 10 nM) turned out to be 1.02; on elephant shark ERa3 (ERa3 in HEK293, 10 nM), 1.07; on elephant shark ERa1 (ERa1 in HEK293, 10 nM), 0.95; on elephant shark ERb (ERb in HEK293, 10 nM), 1.08. Besides, the “Fold-Activation (±SEM)” value on elephant shark ERa2 (ERa2 in HEK293, based on the 10 nM values, ratio to vehicle (DMSO), 2580 min) was 1.82 (±0.13); at elephant shark ERa3 (ERa3 in HEK293, based on the 10 nM values, ratio to vehicle (DMSO), 2580 min) it was 1.87 (±0.15). The EC50 at elephant shark ERa2 (read-out: EC50 for transcriptional activation, ERa2 in HEK293, 4xERE luciferase reporter) amounted to 0.31 nM; on elephant shark ERa3 (read-out: EC50 for transcriptional activation, ERa3 in HEK293, 4xERE luciferase reporter), 0.29 nM; on elephant shark ERa1, 0.2 nM; on elephant shark ERb, 0.02 nM. Also, the fold induction at 0.01 µM amounted to 1.57 at elephant shark ERa1 (setting [2]) and 3.49 on elephant shark ERb (setting [2]).
